Where two headings read alike, the source gives them in different places.
Experiments:
PLA2 = settings: Salari et al., Mol. Pharm. 28:546 (1985), cited from earlier work
[1] = tested on: MTVL murine mammary tumor cells; experiment: survival of mice injected with mammary tumor cells; assay type: in vivo, Balb C mice; settings: 200 μg agarose bound peptide 1 and 4 days after tumor cells; vs agarose beads alone; p<0.001 (FIG. 4)
Description: (§1) Balb C mice were injected with 10^6 MTVL murine mammary tumor cells. The mice were treated with 200 μg of agarose complexed PLAP peptide 1 and 4 days after injection of the tumor cells. The animals were checked daily for survival. The results obtained are the average for twenty animals in each group. Animals that received no treatment (.smallcircle.),animals that received PLAP ( ) p<0.001.
The effectiveness of stimulating tumor necrosis for tumors other than gliomas was tested. To test effectiveness of the present methods in treating neoplastic mammary cells, Balb C mice were injected with 10^6 MTVL murine mammary tumor cells as described above for the glioma cells. The mice were treated with 200 μg of agarose bound PLAP peptide 1 and 4 days after injection of the tumor cells. The animals were checked daily for survival. FIG. 4 provides the average of the results obtained for twenty animals in each group.

[2] = tested on: eicosanoids in exudates obtained from tumors; experiment: measurement of eicosanoids in tumor exudates; assay type: in vivo, rat; settings: 72 hours after injection
Description: (§2) Seventy-two hours after injection, the animals were euthanized by using CO2 gas. The tumor effusions were aspirated and the tumor cell numbers were determined using a Coulter counter. The samples were frozen and stored at -80° for later eicosanoid assay. The tumor masses were removed through an incision made in the dorsum of the animal and weighed. Samples of tumor tissues were stored in formalin for routine histology or snap-frozen in liquid N2 for immunocytochemistry.
Eicosanoid levels in exudates obtained from tumors were determined using enzyme-lined immunoassay kits purchased from Cayman Chemical Company (Ann Arbor, Mich.) and used as recommended by the supplier. Calculations of the amounts of eicosanoids were made using EPA software purchased from the same company.

C6 glioma cells = experiment: rat air pouch glioma model: tumor thickness, weight and necrosis; assay type: in vivo
Description: C6 glioma cells (10^7) were injected into rats and allowed to grow for two weeks. The average thickness of the tumors was approximately 7±2 mm in thickness. The animals were then treated with 500 μg of either agarose complexed PLAP peptide SEQ ID NO. 1 or agarose complexed PLAP-like peptide in which the two adjacent prolines were deleted. After three days of treatment, the animals were given a second injection of the peptide and the tumors were measured on day 6 of the treatment regimen.
C6 glioma cells (10^7) were injected into rats and allowed to grow for two weeks as in FIG. 1. By day 14, the tumors were approximately 7 mm in thickness. The animals were then given the indicated concentrations of the agarose complexed PLAP peptide. The thickness of the tumor was monitored after three days of treatment and the values are shown as a percentage of reduction in the tumor cell mass.
Sprague-Dawley rats were injected with 10^6 C-6 glioma cells. The tumors were allowed to grow for 14 days prior to injection of 500 μg of agarose complexed PLAP peptide. Tumor thickness was measured after 3 and 6 days of treatment.
G6 glioma cells, derived from a glioma induced in the Wistar strain of rat and obtained from the American Type Culture Collection (ATCC) were maintained in tissue culture. The cell cultures were grown to confluence in 75 cm^2 tissue culture flasks, detached from the flasks by addition of trypsin/EDTA, washed twice in fresh culture medium, and resuspended at a final concentration of 2×10^6 cells per ml.
Air pouches were formed in female Sprague-Dawley rats (average age 6-8 weeks; average weight 180 grams). Briefly, 20 cc's of sterile air was injected into the subcutaneous tissues on the dorsum of the animal to form an air filled pouch. Inflation of the pouches was maintained by re-injection of sterile air every other day. Pouches were ready for use on day 7.
Suspension of cultured glioma cells (1×10^6 -1×10^7 cells) were injected into the air pouches. By day 14, the tumors typically were of sufficient size to be used as described below.
Animals were injected with 500 μgrams of PLAP peptide bound to agarose beads. A similar number of rats were injected with unmodified agarose beads as a control. In order to ensure uniform distribution of the bound peptide, the total volumes injected were increased to 5 ml by the addition of sterile saline immediately prior to injection. Since tumor growth was characterized by formation of large effusions containing high levels of eicosanoids, the tumors were aspirated immediately prior to injection of PLAP peptide or agarose beads alone.
as §2, with “Samples of tumor tissues were stored in formalin for routine histology or snap-frozen in liquid N2 for immunocytochemistry.” left out
To determine the effect of concentration of PLAP peptide on tumor cell number and tumor size, Sprague-Dawley rats were injected with 10^6 C-6 glioma cells as described above, and were then treated with either 0, 0.25, 0.5, or 1 mg/rat PLAP. Three days after treatment, the maximum thickness of the tumors was measured.
To determine the length of the effectiveness of administering PLAP peptide, Sprague-Dawley rats were injected with 10^6 C-6 glioma cells as described above. […] Tumor thickness was measured 3 and 6 days after treatment.

[3] = tested on: LL-2 murine lung tumor cells; experiment: survival of mice injected with lung tumor cells; assay type: in vivo, C57 Bl/6 mice; settings: 200 μg agarose bound peptide 1 and 4 days after tumor cells; vs agarose beads alone; p<0.0001 (FIG. 5)
Description: as §1, with “C57 Bl/6” for “Balb C”, “LL-2” for “MTVL”, “lung” for “mammary”, “result” for “results”, “(.smallcircle.), animals” for “(.smallcircle.),animals”, “p<0.0001.” for “p<0.001.”
To test the effectiveness of the present methods in treating neoplastic lung cells, C57 Bl/6 mice were injected with 10^6 LL-2 murine lung tumor cells as described above for the glioma cells. The mice were treated with 200 μg of agarose bound PLAP peptide 1 and 4 days after injection of the tumor cells. The animals were checked daily for survival. FIG. 5 provides the average of the result obtained for twenty animals in each group were used.

mononuclear cells = experiment: immunocytochemical analysis of tumors (mononuclear cell infiltrate); assay type: in vivo, rat; settings: frozen sections of tumor tissues reacted with MAbs
Description: Snap-frozen tissue samples were sectioned on a cryotome, fixed in acetone, blocked with levamisole, and then reacted with monoclonal antibodies to cell surface determinants expressed by mononuclear cells. After washing, tissue sections were reacted with biotin-labelled rat anti-mouse IgG monoclonal antibodies, alkaline phosphate-labelled avidin-biotin complex (ABC, Vecta, Burlinghame, Calif.) and color developed by the addition of appropriate substrate. Sections were then mounted in Permount (Fisher Scientific) and read in an Olympus light microscope.
To determine whether PLAP-induced tumor necrosis was associated with specific cellular events, frozen sections of tumor tissues were reacted with MAbs directed at subpopulations of mononuclear cells. […] Thus, PLAP-induced tumor necrosis appears to be mediated through enhanced NK/LAK cell activation.

phospholipase A2 = experiment: stimulation of phospholipase A2 activity in vitro; assay type: biochemical; settings: in vitro (unpublished results)
Description: As used herein phospholipase A2 activating agents, PLAA, are defined as agents which induce phospholipase A2 activity. A variety of procedures are known in the art for assaying an agent for PLAA activity. These include, but are not limited to, assaying cultured endothelial cells or smooth muscle cells for the release of arachidonic acid in the presence of the agent as well as cell free systems which utilize 1-palmitoyl-2-[14C]arachidonyl-sn-glycero-3-phospho-[methy13H]choline to assay for PLA2 activity (see Clark et al., J. Biol. Chem. 261:10713-10718 (1986) and Clark et al., Biochem. J. 250:125-132 (1988).

neutrophil = settings: Bomalaski et al., J. Immuno. (1989); cited from earlier work

In the case of `CC[C@H](C)[C@H](NC(=O)CN)C(=O)NCC(=O)N[C@@H](C)C(=O)N[C@H](C(=O)N[C@@H](CC(C)C)C(=O)N[C@@H](CCCCN)C(=O)N[C@H](C(=O)N[C@@H](CC(C)C)C(=O)N[C@H](C(=O)N[C@H](C(=O)NCC(=O)N[C@@H](CC(C)C)C(=O)N1CCC[C@H]1C(=O)N[C@@H](C)C(=O)N[C@@H](CC(C)C)C(=O)N[C@H](C(=O)N[C@@H](CO)C(=O)N[C@@H](Cc1c[nH]c2ccccc12)C(=O)N[C@H](C(=O)N[C@@H](CCCCN)C(=O)N[C@@H](CCCNC(=N)N)C(=O)N[C@@H](CCCCN)C(=O)N[C@@H](CCCNC(=N)N)C(=O)N[C@@H](CCC(N)=O)C(=O)N[C@@H](CCC(N)=O)C(N)=O)[C@@H](C)CC)[C@@H](C)CC)[C@@H](C)O)[C@@H](C)O)C(C)C)C(C)C` [melittin], the “stimulation of PLA2 activity” value (PLA2) is listed as “shown to stimulate PLA2 activity” and the “stimulation of PLA2 activity” value (PLA2; listed as Melittin) is listed as “has phospholipase activating activity”.

In the case of TNF-alpha, the “stimulation of PLA2 activity” value (PLA2) is given as “shown to stimulate PLA2 activity”.

In the case of “GLU-SER-PRO-LEU-ILE-ALA-LYS-VAL-LEU-THR-THR-GLU-PRO -PRO-ILE-ILE-THR-PRO-VAL-ARG-ARG-(THR-LEU) [PLAP peptide]”, the “survival of mice injected with mammary tumor cells” value [1] is reported as “increased the survival”, the “amount of LTC4 in exudates from tumors compared with those injected with agarose beads” value [2] is reported as “No changes” and the “amount of PGE2 in treated tumors compared with tumors injected with agarose beads” value [2] is reported as 50 fold. For the same molecule, the “amount of PGI2 in exudates from tumors compared with those injected with agarose beads” value [2] was “No changes”, the “amount of leukotriene B4 (LTB4) in treated tumors compared with tumors injected with agarose beads” value [2] was 20 fold and the “reduction in tumor size as a function of amount administered” value (C6 glioma cells; rats, 0, 0.25, 0.5 or 1 mg/rat, maximum tumor thickness three days after treatment (FIG. 2)) was “concentration dependent”. The “duration of tumor necrosis” value (C6 glioma cells; rats, 500 μg agarose bound peptide, tumor thickness 3 and 6 days after treatment (FIG. 3)) was “observed to continue even at 6 days”, the “tumor regression / size of the tumor” value (C6 glioma cells; rats, 500 μg agarose complexed peptide, second injection after three days, tumors measured on day 6 (FIG. 1)) was “profound effect on the size of the tumor” and the “tumor weight compared with control animals” value (C6 glioma cells; rats, 500 μg peptide bound to agarose beads, 72 hours) was “reduction in tumor weight”. The tumor necrosis (C6 glioma cells; rats, 500 μg peptide bound to agarose beads, tumor tissues examined after 72 hours) was “caused significant necrosis”, the “survival of mice injected with lung tumor cells” value [3] was “increased the survival” and the “OXI (cytotoxic T lymphocyte) and NRK-1 positive (NK) cells in the infiltrate” value (mononuclear cells) was “high numbers”. For the same molecule, the “mononuclear cell infiltrate in tumor tissues” value (mononuclear cells) was “stimulated mononuclear cell infiltrate” and the “stimulation of phospholipase A2 activity in vitro” value (phospholipase A2) was “stimulated phospholipase A2 activity”.

B1: PLAP: mouse phospholipase A2 activating protein, molecular mass approximately 28,000 (protein, UniProt P27612 1-794, looked up)
Phospholipase A-2-activating …: MASGASRYRLSCSLPGHELDVRGLVCCLYPPGAFVSVSRDRTTRLWAPDSPNRGFTEMHCMSGHSNFVSCVCIIPSSDIYPHGLIATGGNDHNICIFSLDSPMPLYILKGHKDTVCSLSSGKFGTLLSGSWDTTAKVWLNDKCMMTLQGHTAAVWAVKILPEQGLMLTGSADKTIKLWKAGRCERTFLGHEDCVRGLAILSETEFLSCANDASIRRWQITGECLEVYFGHTNYIYSISVFPNSKDFVTTAEDRSLRIWKHGECAQTIRLPAQSIWCCCVLENGDIVVGASDGIIRVFTESEERTASAEEIKAFERELSQATIDSKTGDLGDINAEQLPGREHLSEPGTREGQTRLIRDGERVEAYQWSVSDGRWIKIGDVVGSSGANQQTSGKVLYEGKEFDYVFSIDVNEGGPSYKLPYNVSDDPWLVAYNFLQKNDLNPMFLDQVAKFIIDNTKGQTLGLGNTSFSDPFTGGGRYVPGTSGPSNTVQTADPFTGAGRYMPGSAGMDTTMTGVDPFTGNSAYRSAASKTVNIYFPKKEALTFDQANPTQILGKLKELNGTAPEEKKLTEDDLVLLEKILSLICNNSSEKPTAQQLQILWKAINWPEDIVFPALDILRLSIKHPNVNENFCNEKGDQFSSHLINLLNPKGKPANQLLALRTFCNCFVSQAGQKLMMSQRESLMSHAIELKSGSNKNIHIALATLTLNYSVCFHKDHNIEGKAQCLSVISTILEVVQDLEATFRLLVALGTLISDDSNAIQLAKSLGVDSQIKKYVSVSEPAKVSECCRLVLHLL
For B1, the neutrophil aggregation (neutrophil) is given as “stimulates neutrophil aggregation” and the neutrophil chemokinesis (neutrophil) is given as “stimulates”.
